# Reference: US20220143198A1, “COMPOSITIONS AND METHODS RELATED TO TETHERED KETHOXAL DERIVATIVES” (The University of Chicago, priority 2019, published 2022)
# How the values were obtained:
# [1] = system: 12-mer synthetic RNA oligo containing four guanine bases; experiment: Labeling activity of phenol-kethoxal and diphenol-kethoxal on 12-mer synthetic RNA oligo (MALDI-TOF); type: biochemical; conditions: 10 min incubation
# Experimental: To test the labeling activity of phenol-kethoxal and diphenol-kethoxal, the two compounds were incubated with a 12-mer synthetic RNA oligo containing four guanine bases, respectively. After 10 min, the reactions were cleaned-up and analyzed by MALDI-TOF.
# [2] = system: Cells; experiment: Cell permeability and radical-mediated biotinylation of RNA from treated cells (dot blot); type: cell-based; conditions: cells treated 10 min, versus control sample
# Experimental: A second set of test were performed to test cell permeability of phenol-kethoxal and diphenol-kethoxal and if the labeling enhances radical-mediated biotinylation. Cells were treated with phenol-kethoxal and diphenol-kethoxal for 10 min, respectively, and RNA isolated from treated cells. An in vitro biotinylation reaction was performed by mixing these kethoxal derivative-labeled RNAs with biotin-phenol, horseradish peroxidase (HRP), and H2O2, see FIG. 4. HRP is an enzyme that mimics APEX with higher radical generation activity in vitro. The biotinylated RNAs were purified and subjected to dot blot analysis.
# [3] = system: guanosine; experiment: Reversibility of kethoxal derivatives by adjusting pH (kethoxal-guanosine adduct dissociation); type: physicochemical
# [4] = pH = 5.8, 4 h after adjusting from pH 10.1, 1:1 ratio
# [5] = pH = 5.8, 24 h after adjusting from pH 10.1, 1:1 ratio
# [6] = pH = 10.1, 10 min, kethoxal derivative and guanosine 1:1
# [7] = pH = 5.8, 10 min after adjusting from pH 10.1, 1:1 ratio
SMILES,Labeling activity on RNA oligo [1],Biotin signal of RNA from treated cells after HRP/biotin-phenol/H2O2 biotinylation [2],"Conversion of guanosine [3, 4] [%]","Conversion of guanosine [3, 5] [%]","Conversion of guanosine [3, 6] [%]","Conversion of guanosine [3, 7] [%]"
CC(OCCn1cc(-c2ccc(O)cc2)nn1)C(=O)C=O (stereo not shown) [phenol-kethoxal],"label the oligo efficiently, with all four guanines on all oligo molecules modified",stronger biotin signals compared with the control sample,–,–,–,–
CC(OCCn1cc(-c2ccc(O)c(O)c2)nn1)C(=O)C=O (stereo not shown) [diphenol-kethoxal],"label the oligo efficiently, with all four guanines on all oligo molecules modified",stronger biotin signals compared with the control sample,–,–,–,–
CC(OC(=O)CN=[N+]=[N-])C(=O)C=O (stereo not shown) [drawing 65],–,–,77.3,77.2,75.5,–
CC(OCCN=[N+]=[N-])C(=O)C=O (stereo not shown) [drawing 62],–,–,80.2,81.8,79.8,79.8
CC(C(=O)C=O)N(C)C(=O)CN=[N+]=[N-] (stereo not shown) [drawing 71],–,–,31.9,26.5,35.6,–
[N-]=[N+]=NCCCC(=O)C=O [drawing 70],–,–,19.0,14.7,30.2,–
CC(N=[N+]=[N-])C(=O)C=O (stereo not shown) [drawing 66],–,–,65.2,58.7,65.9,65.6
[N-]=[N+]=NCCOC(F)C(=O)C=O (stereo not shown) [drawing 74],–,–,57.1,58.2,46.2,50.1
